# Laboratory results taken from patent publication US20190255146A1, “POLYPEPTIDES FOR IMPROVED RESPONSE TO ANTI-CANCER THERAPY” (MUSC FOUNDATION FOR RESEARCH DEVELOPMENT, priority 2016, published 2019).
# Assays:
# [1] = tested on: UM-SCC-22A cells; test: Mitophagy in UM-SCC-22A cells (live cell imaging, colocalization of LTG and MTR); assay type: cell-based
# Method: Laser scanning confocal microscopy. For live cell imaging, cultured cells were incubated with 500 nM of mitotracker […] and 500 nM lysotracker green in DMSO for 30 min at 37° C. […] An Olympus FV10i confocal microscope was used for imaging. 543- and 488-nm channels were used for visualizing red or green fluorescence, respectively, with pinholes set to 1.0 Airy units. At least three random fields were imaged for each sample ([…] et al, 2012).
# [2] = target: T1, Drp1-E2F5 complex (Homo sapiens, UniProt O00429); test: Drp1-E2F5 association by PLA in tumor tissue sections; assay type: in vivo, mice; conditions: peptide plus cisplatin versus Scr-pept with/without cisplatin
# T1 construct: from tissue; host or cells: UM-SCC-22A xenograft tumours grown in SCID mice
# Method: (§1) Images were quantified using FIJI.
# (§2) Proximity ligation assay. Proximity ligation assays were performed using Duolink in situ red kit (Sigma) per manufacturer's instructions, then analyzed as described (Panneer-Selvam et al, 2015).
# In vivo studies. […] Age- and sex-matched mice were used. […] Tumor volume was measured using calipers.
# [3] = tested on: UM-SCC-22A cells
# Method: Trypan blue exclusion assay. Cells were seeded in 6-well plates, and allowed to adhere for 20 h. After treatments (for 24 h), medium containing dead cells was pelleted with trypsinized cells, then re-suspended in 1× PBS then counted in a hemocytometer after addition of trypan blue dye (Sigma-Aldrich) at a 1:10 dilution.
# [4] = tested on: UM-SCC-22A-derived xenograft tumors; test: HPV(−) UM-SCC-22A-derived xenograft tumor growth in SCID mice; assay type: in vivo; conditions: UM-SCC-22A xenografts, 3.76 μg peptide, absence/presence of cisplatin 3.5 mg/kg every 3 days for 2 weeks
# Method: To determine whether HPV(+) compared to HPV(−) HNSCC cells are more sensitive to stress-mediated growth inhibition in response to chemotherapeutic drugs, it was first established HPV(+) UM-SCC-47- and HPV(−) UM-SCC-22A-derived xenograft tumors in SCID mice. After the xenograft-derived tumors were ˜75-100 mm^3, the mice were treated with cisplatin (3.5 mg/kg) for two weeks, which is below its maximum tolerated doses (van Moorsel et al, 1999). Then, tumor volumes were measured at days 0 and 14 of treatment. […] After tumor growth measurements in the mice were taken, the tumors were surgically removed and the effects of cisplatin on CerS1-6 mRNA were measured by qRT-PCR.
# Eight arginine residues (R8) were included on the N-terminus to enhance cell penetration of the E2F5 peptide (Rancher and Ryu, 2015).
# (§3) In vivo studies. Severe combined immunodeficient (SCID) mice were purchased from Jackson Laboratories. Age- and sex-matched mice were used. All animal protocols were approved by the Institutional Animal Care and Use Committee at the Medical University of South Carolina. UM-SCC22A or UM-SCC47 cells (75,000) were implanted into the flanks of SCID mice (n=5-8 mice). When the tumors were palpable, the mice were treated every three days with 3.5 mg/kg cisplatin, 20 mg/kg C18-pyr-cer, or corresponding amount of vehicle control and/or 3.76 μg E2F5-peptide or scrambled control peptide. Tumor volume was measured using calipers. At the end of the 14-day treatment, the mice were euthanized and tumor tissues were collected (Sentelle et al, 2007; Saddoughi et al, 2013).
# [5] = tested on: UM-SCC-22A xenograft-derived tumors; conditions: peptide plus cisplatin versus Scr-pept with/without cisplatin
# From the text: Data are means±SD from three independent experiments. *p<0.05 as determined by Student's t test. […] Data are means±SD from three independent experiments. *p<0.05 as determined by Student's t test. […] Data are means±SD from three independent experiments. *p<0.05 as determined by Student's t test.
# as §3
# [6] = target: T2, Drp1 (Homo sapiens, UniProt O00429); test: Drp1 recruitment to mitochondria in HPV(−) UM-SCC-22A cells (Western blotting of mitochondria-enriched fractions); assay type: cell-based; conditions: 5 uM peptide, 20 uM C18-pyr-cer, 1.5 hours
# T2 construct: Western blotting using whole cell (UM-SCC-22A) lysates versus mitochondria-enriched fractions; endogenous in cells; host or cells: UM-SCC-22A
# Method: as §1
# (§4) Immunoblotting. Cells were lysed in RIPA buffer plus protease inhibitor cocktail on ice for 15 minutes then centrifuged. 30ug of protein from the supernatant were run on Criterion™ TGX™ Precast Gels (Bio-Rad).
# Cell fractionation. Cells were treated with 40 uM cisplatin or vehicle for eight hours, 20 uM C18-pyr-cer or vehicle and/or 5 uM scr-pept or E2F5-pept for 1.5 hours. Mitochondria isolation kit (ThermoFisher Scientific) was used as described by the manufacturer.
# [7] = tested on: Drp1-E2F5 complex; test: Drp1-E2F5 association in UM-SCC-47 cells (PLA, co-immunoprecipitation); assay type: cell-based
# Method: as §2
# Co-immunoprecipitation. Cells were lysed in 500 ul Pierce™ IP lysis/wash buffer (ThermoFisher) with protease inhibitor cocktail (Sigma) on ice for 15 minutes. 350 μg of protein were used with SureBeads™ Protein A Magnetic Beads (BioRad) per manufacturer's instructions, using 10 μg antibody or corresponding normal IgG control (SCBT).
# [8] = tested on: Drp1; test: Drp1 recruitment to mitochondria in HPV(+) UM-SCC-47 cells (Western blotting of mitochondria-enriched fractions); assay type: cell-based
# Method: (§5) FIGS. 9A-D. E2F5 enhances Drp1 translocation to mitochondria and association with MFF to induce HPV-E7/ceramide-dependent mitophagy. (A) Effects of stable knockdown of E2F5 using shRNA on DRP1-MFF association with/without C18-pyr-cer were measured by PLA using anti-DRP1 and anti-MFF antibodies compared to Scr-shRNA-transfected UM-SCC-47 controls. […] (B) HPV(−) UM-SCC1A cells transiently transfected with exogenous E2F5 or empty vector (vec) were used to measure the association between Drp1 and MFF in the absence/presence of ceramide stress by PLA using anti-DRP1 and anti-MFF antibodies. […] (C) Effects of shRNA-mediated E2F5 knockdown on Drp1 localization to mitochondria in the absence/presence of C18-pyr-cer were assessed in whole cell lysates (UM-SCC-47) versus mitochondria-enriched fractions using Western blotting. (D) Effects of transient reconstitution of E2F5^WT or E2F5^Δ84-177 proteins in UM-SCC47 cells, which were stably transfected with E2F5-shRNA, on Drp1 abundance, were measured by Western blotting using anti-Drp1 antibody, in whole cell lysates versus mitochondria-enriched fractions.
# as §4
# Cell fractionation. […]
# [9] = tested on: Drp1; test: Drp1 oligomerization by Western blotting without reducing agents; assay type: cell-based; conditions: HPV(+) UM-SCC47 cells
# Method: FIGS. 7A-F. E2F5/Drp1 complex enhances HPV-E7/ceramide-dependent lethal mitophagy. (A) UM-SCC47 cells were treated with cisplatin or C18-pyr-cer and Western blotting was performed with cell lysates in the absence of reducing agents in the lysing buffer to detect monomeric and dimeric Drp1 protein abundance compared to vehicle-treated controls. Actin was used as a loading control. (B-C) Cell death was assessed by trypan blue exclusion assay in UM-SCC47 cells expressing dominant-negative Drp1 mutant (K38A-DRP1) and treated with C18-pyr-cer (B) or cisplatin (C) compared to vector-transfected controls. […] (D-E) Association between E2F5 and Drp1 in response to ceramide stress (C18-pyr-cer) was measured in UM-SCC-47 cells using PLA (D) or immunoprecipitation followed by Western blotting (E) with anti-Drp1 or anti-E2F5 antibodies. IgG was used as a control. […] PLA signals were quantified as described by the manufacturer using the PLA quantification software. […] Effects of siRNA-mediated HPV-E6/E7 knockdown on pRB, HPV-E7 and p53 protein abundance were also confirmed by Western blotting compared to Scr-siRNA-transfected controls in the absence/presence of C18-pyr-cer (right panel). Total RB was used a loading control (Rb band, upper panel).
# Immunoblotting. Cells were lysed in RIPA buffer plus protease inhibitor cocktail on ice for 15 minutes then centrifuged. […]
# [10] = tested on: Drp1-MFF association; test: Drp1-MFF association by PLA in UM-SCC47 cells; assay type: cell-based
# Method: as §5, §2
# [11] = tested on: UM-SCC-47 cells; test: Mitophagy in UM-SCC-47 cells (Sea Horse oxygen consumption rate, TEM); assay type: cell-based
# Method: Measurement of cellular respiration using Seahorse XF analyzer. Cells were plated in a Seahorse Biosciences 96-well plate and allowed to adhere for 20 hours. They were then treated with 20 uM C18-pyr-cer or equivalent amount of vehicle (EtOH) for two hours, then oxygen consumption rate was measured using a Seahorse XF96 (Seahorse Biosciences) as described by the manufacturer (Sentelle et al, 2012).
# Ultra-structure analysis using transmission electron microscopy.
# [12] = tested on: UM-SCC-22A cells; test: Growth inhibition in culture, IC50 determination by MTT assay; assay type: cell-based; conditions: UM-SCC-22A (HPV−) cells, 48 h; read-out: IC50 (concentration that inhibited growth by 50%)
# Method: (§6) IC50 determination by MTT assay. Cells were plated in 96-well plates and allowed to adhere for 20 h, then treated with the indicated concentrations of drug. After 48 h treatment, the MTT assay (ATCC) was performed as described previously (Sentelle et al, 2012).
# [13] = tested on: UM-SCC-47 cells; test: as above; assay type: cell-based
# Method: as §6
# T2 sequence (O00429 whole entry): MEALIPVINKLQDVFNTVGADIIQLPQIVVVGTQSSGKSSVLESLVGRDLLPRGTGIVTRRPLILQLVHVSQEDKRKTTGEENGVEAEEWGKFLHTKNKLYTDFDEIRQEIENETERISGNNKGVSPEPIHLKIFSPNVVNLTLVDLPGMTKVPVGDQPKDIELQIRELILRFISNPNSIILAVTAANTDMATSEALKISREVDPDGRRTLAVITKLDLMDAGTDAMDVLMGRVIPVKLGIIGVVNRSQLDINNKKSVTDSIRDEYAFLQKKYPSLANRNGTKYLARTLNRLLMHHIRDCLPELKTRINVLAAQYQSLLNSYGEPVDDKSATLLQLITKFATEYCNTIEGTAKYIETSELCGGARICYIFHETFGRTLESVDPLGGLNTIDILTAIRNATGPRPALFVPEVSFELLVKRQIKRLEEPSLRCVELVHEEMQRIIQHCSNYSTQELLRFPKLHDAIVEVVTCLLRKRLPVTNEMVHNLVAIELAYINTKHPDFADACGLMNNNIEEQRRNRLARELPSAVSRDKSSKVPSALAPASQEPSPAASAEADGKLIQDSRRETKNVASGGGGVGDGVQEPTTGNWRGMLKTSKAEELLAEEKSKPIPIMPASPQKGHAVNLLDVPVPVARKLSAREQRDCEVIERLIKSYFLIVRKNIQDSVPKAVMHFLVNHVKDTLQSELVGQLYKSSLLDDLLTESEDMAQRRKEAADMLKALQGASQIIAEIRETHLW
# T1 sequence (O00429 whole entry, one chain of several): as the sequence (O00429 whole entry) above
Substance,C18-pyr-cer-induced mitophagy (colocalization of LTG and MTR) ([1]; peptide plus C18-pyr-cer),co-localization of Drp1 and E2F5 in tumors (PLA) [2],"C18-pyr-cer-induced cell death ([3]; peptide plus C18-pyr-cer, compared to scr-pept)","cisplatin-induced cell death ([3]; peptide plus cisplatin, compared to scr-pept)",peptide-enhanced cell death under shRNA-mediated Drp1 knockdown ([3]; with/without C18-pyr-cer),tumor growth [4],mitophagy in tumors (TEM) [5],ceramide-induced Drp1 recruitment to mitochondria [6],"lethal mitophagy in HPV(−) cells ([1]; 5-10 μM, 24-48 h)",Drp1-E2F5 association by PLA ([7]; versus controls),Drp1-E2F5 association by co-immunoprecipitation ([7]; versus vehicle control),recruitment of Drp1 to mitochondria [8],Drp1 oligomerization and/or activation [9],Drp1-MFF association by PLA [10],number of mitochondria and autophagosomes by TEM ([11]; HPV(+) UM-SCC-47 compared to HPV(−) UM-SCC-22A cells),"mitophagy detected by decreased oxygen consumption rate ([11]; UM-SCC-47 cells, Sea Horse, versus vehicle)",IC50 [12] [µM],"IC50 ([13]; UM-SCC-47 (HPV+) cells, 48 h, read-out: IC50 (concentration that inhibited growth by 50%)) [µM]","sensitivity for drug-induced growth inhibition/cell death, UM-SCC-47 compared to UM-SCC-22A cells ([13]; cells in culture) [fold]"
Biotin-RRRRRRRR-ELDQQKLWLQQSIKNVMDDSINNRFSYVTHED [E2F5-pept],enhanced C18-pyr-cer-induced mitophagy,increased,largely increased,largely increased,attenuated,almost completely inhibited tumor growth,increased mitophagy,enhanced ceramide-induced Drp1 recruitment to mitochondria,,,,,,,,,,,
C18-pyridinium-ceramide [C18-pyr-cer],,,,,,,,,induces lethal mitophagy,increased Drp1-E2F5 association,increased association between Drp1 and E2F5,induced recruitment of Drp1 to mitochondria,Drp1 oligomerization and/or activation was observed,induced Drp1-MFF association,a decreased number mitochondria and an increased number of autophagosomes,increased mitophagy,5,1.6,~3
